Test results: ChEMBL document CHEMBL4602694, “Suppression of Drug-Resistant Non-Small-Cell Lung Cancer with Inhibitors Targeting Minichromosomal Maintenance Protein” (J Med Chem, 2020)
Calls of active or inactive are those of the source. No cut-off for these calls is given here.

Experiments:
NCI-H1975 [1] = test: Antitumor activity against human NCI-H1975 cells xenografted in athymic nude BALB/c mouse assessed as delay in tumor growth at 1 or 4 mg/kg, ip administered for 4 weeks; type: functional, organism-based
[2] = Toxicity in athymic nude BALB/c mouse xenografted with human NCI-H1975 cells assessed as effect on kidney at 1 or 4 mg/kg, ip administered for 4 weeks; type: organism-based; conditions: in vivo, 672 h
[3] = Toxicity in athymic nude BALB/c mouse xenografted with human NCI-H1975 cells assessed as reduction in body weight at 1 or 4 mg/kg, ip administered for 4 weeks; type: organism-based; conditions: in vivo, 672 h
[4] = Toxicity in athymic nude BALB/c mouse xenografted with human NCI-H1975 cells assessed as effect on liver at 1 or 4 mg/kg, ip administered for 4 weeks; type: organism-based; conditions: in vivo, 672 h
NCI-H1975 [5] = test: Cell cycle arrest in human NCI-H1975 cells assessed as BrdU positive cells at 140 nM incubated for 48 hrs by BrdUrd incorporation assay (reference value: 34 +/- 5.6 %); type: functional
[6] = target: DNA replication licensing factor MCM2 (Homo sapiens) (UniProt P49736); test: Induction of ubiquitination of MCM2 in human NCI-H1975 cells incubated for 24 hrs by immunoblot analysis; type: cell-based
[7] = target: DNA replication licensing factor MCM7 (Homo sapiens) (UniProt P33993); test: Induction of ubiquitination of MCM7 in human H3255 cells incubated for 24 hrs by immunoblot analysis; type: cell-based; conditions: NCI-H3255
[8] = target: T1, DNA replication licensing factor MCM6 (Homo sapiens) (UniProt Q14566); test: Induction of ubiquitination of MCM6 in human NCI-H1975 cells incubated for 72 hrs by immunoblot analysis (reference value: 1); type: cell-based
T1 sequence (whole entry): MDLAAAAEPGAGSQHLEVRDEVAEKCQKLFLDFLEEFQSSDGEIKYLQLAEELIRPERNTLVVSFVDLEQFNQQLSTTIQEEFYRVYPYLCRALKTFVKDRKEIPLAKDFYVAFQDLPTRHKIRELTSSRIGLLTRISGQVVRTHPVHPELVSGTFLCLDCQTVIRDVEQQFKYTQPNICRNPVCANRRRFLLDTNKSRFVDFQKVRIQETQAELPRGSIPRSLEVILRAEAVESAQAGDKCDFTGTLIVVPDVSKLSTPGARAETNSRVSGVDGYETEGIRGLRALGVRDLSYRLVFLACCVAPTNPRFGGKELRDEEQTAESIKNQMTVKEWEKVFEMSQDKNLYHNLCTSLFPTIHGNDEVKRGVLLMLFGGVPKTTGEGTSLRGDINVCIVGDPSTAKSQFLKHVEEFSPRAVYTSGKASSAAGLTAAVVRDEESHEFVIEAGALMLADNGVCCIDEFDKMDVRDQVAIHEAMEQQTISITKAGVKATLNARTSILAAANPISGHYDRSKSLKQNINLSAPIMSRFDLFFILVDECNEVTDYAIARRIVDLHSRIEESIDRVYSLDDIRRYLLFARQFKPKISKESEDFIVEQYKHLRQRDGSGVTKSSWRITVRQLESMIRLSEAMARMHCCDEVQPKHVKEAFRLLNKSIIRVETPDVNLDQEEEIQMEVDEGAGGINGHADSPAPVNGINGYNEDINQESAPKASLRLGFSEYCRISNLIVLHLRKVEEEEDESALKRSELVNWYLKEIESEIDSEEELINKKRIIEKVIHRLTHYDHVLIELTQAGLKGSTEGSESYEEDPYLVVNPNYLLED

[9] = target: T2, DNA replication licensing factor MCM4 (Homo sapiens) (UniProt P33991); test: Induction of ubiquitination of MCM4 in human NCI-H1975 cells incubated for 24 hrs by immunoblot analysis (reference value: 1); type: cell-based
T2 sequence (whole entry): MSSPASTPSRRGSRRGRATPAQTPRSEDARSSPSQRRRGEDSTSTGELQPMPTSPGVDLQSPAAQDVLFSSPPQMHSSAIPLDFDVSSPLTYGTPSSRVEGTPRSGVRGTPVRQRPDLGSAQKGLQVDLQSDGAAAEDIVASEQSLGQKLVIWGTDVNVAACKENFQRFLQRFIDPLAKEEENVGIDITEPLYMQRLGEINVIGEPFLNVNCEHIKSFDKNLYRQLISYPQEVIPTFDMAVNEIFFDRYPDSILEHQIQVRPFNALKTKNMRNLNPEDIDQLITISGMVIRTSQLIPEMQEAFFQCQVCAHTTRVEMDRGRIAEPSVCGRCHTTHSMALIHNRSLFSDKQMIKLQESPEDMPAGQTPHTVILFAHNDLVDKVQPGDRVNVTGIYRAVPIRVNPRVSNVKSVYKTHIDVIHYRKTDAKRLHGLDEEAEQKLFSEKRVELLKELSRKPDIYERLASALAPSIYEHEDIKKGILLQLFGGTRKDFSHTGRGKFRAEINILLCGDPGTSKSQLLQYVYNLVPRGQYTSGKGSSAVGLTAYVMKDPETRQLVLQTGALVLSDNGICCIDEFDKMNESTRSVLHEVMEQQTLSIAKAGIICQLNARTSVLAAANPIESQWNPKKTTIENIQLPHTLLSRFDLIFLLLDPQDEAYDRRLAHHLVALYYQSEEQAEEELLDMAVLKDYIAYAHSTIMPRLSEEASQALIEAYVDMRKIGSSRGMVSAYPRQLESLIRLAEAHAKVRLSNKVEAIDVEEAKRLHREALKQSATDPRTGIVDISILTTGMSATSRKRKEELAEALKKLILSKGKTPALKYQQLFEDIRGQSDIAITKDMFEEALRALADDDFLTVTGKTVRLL

[10] = target: DNA replication licensing factor MCM2 (Homo sapiens) (UniProt P49736); test: Induction of ubiquitination of MCM2 in human NCI-H1975 cells in presence of MG132 incubated for 48 hrs followed by MG132 addition and measured after 12 hrs by immunoblot analysis (reference value: 1.4); type: cell-based
[11] = target: T1, DNA replication licensing factor MCM6 (Homo sapiens); test: Induction of ubiquitination of MCM6 in human NCI-H1975 cells in presence of MG132 incubated for 48 hrs followed by MG132 addition and measured after 12 hrs by immunoblot analysis (reference value: 1.8); type: cell-based
[12] = target: T1, DNA replication licensing factor MCM6 (Homo sapiens); test: Induction of ubiquitination of MCM6 in human NCI-H1975 cells at 140 nM in presence of MG132 incubated for 48 hrs followed by MG132 addition and measured after 12 hrs by immunoblot analysis; type: cell-based
[13] = target: DNA replication licensing factor MCM2 (Homo sapiens) (UniProt P49736); test: Binding affinity to MCM2 in human NCI-H1975 cells assessed as reduction in MCM2 level measured up to 9 hrs by immunoblot analysis; type: cell-based
[14] = target: DNA replication licensing factor MCM2 (Homo sapiens) (UniProt P49736); test: Induction of ubiquitination of FLAG-tagged MCM2 in human NCI-H1975 cells incubated for 24 hrs by magnetic beads technique based immunoblot analysis; type: cell-based
[15] = target: DNA replication licensing factor MCM2 (Homo sapiens) (UniProt P49736); test: Induction of ubiquitination of FLAG-tagged MCM2 in human 293T cells incubated for 4 hrs by magnetic beads technique based immunoblot analysis; type: cell-based; conditions: HEK-293T
[16] = Selectivity index, ratio of IC50 for human bronchial epithelial cells to IC50 for human PC9IR cells; type: toxicity; conditions: human bronchial epithelial cells versus PC9IR cells, read-out: Ratio IC50
[17] = Selectivity index, ratio of IC50 for human bronchial epithelial cells to IC50 for human CL1-0 cells; type: toxicity; conditions: human bronchial epithelial cells versus CL1-0 cells, read-out: Ratio IC50

Sequence of DNA replication licensing factor MCM2 (Homo sapiens) (P49736 whole entry): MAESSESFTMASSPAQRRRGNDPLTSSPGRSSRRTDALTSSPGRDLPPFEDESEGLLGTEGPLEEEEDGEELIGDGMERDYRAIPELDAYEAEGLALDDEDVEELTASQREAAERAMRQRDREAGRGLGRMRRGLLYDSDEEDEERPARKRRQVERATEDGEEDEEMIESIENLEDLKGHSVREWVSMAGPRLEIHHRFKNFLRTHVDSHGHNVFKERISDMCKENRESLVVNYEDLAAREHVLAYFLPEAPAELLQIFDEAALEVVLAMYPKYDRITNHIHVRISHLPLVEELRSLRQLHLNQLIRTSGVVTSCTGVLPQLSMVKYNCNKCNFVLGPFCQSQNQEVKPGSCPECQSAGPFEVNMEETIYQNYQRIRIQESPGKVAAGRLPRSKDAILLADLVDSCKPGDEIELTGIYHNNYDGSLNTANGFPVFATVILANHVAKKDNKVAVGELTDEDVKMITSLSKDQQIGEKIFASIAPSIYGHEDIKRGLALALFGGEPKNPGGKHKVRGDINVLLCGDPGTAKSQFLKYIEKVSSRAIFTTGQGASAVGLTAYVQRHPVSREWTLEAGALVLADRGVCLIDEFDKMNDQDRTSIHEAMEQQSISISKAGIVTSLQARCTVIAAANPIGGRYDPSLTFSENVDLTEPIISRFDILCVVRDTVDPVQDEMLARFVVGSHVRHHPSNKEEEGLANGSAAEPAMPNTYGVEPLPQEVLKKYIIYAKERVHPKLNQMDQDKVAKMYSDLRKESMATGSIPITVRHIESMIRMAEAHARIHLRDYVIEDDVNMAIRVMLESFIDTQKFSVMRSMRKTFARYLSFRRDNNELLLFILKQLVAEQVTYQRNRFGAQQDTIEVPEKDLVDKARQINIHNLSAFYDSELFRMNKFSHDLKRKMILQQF
Sequence of DNA replication licensing factor MCM7 (Homo sapiens) (P33993 whole entry): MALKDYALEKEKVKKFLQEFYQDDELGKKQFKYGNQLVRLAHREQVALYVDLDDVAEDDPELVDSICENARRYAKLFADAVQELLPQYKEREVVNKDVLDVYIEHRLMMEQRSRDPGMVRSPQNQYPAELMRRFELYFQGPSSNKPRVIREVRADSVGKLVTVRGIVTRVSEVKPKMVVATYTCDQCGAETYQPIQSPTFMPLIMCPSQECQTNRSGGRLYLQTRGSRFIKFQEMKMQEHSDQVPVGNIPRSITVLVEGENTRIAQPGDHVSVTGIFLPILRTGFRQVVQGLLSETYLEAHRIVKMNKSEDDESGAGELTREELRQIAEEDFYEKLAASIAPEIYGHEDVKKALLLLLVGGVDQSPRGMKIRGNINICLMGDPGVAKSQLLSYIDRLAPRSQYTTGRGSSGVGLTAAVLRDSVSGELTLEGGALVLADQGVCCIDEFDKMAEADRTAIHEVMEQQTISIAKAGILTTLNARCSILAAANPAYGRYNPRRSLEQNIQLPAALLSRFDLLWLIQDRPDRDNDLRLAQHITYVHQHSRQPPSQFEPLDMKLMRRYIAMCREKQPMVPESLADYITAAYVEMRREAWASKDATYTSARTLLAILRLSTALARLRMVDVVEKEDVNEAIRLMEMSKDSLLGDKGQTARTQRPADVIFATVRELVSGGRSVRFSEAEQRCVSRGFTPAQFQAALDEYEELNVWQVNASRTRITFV

Activity [6]: Dose-dependent effect
Activity [7]: Active
Activity [8]: 0.2
Activity [9]: 0.4
Activity [10]: 1.6
Activity [11]: 0.5
Activity [12]: Active
Activity [13]: Active
Activity [14]: Active
Activity [15]: Active
SMILES: Cc1oc2c(c1C(=O)NCCCn1ccnc1)C(=O)c1ccccc1C2=O
Activity (NCI-H1975 [1]): Active
Activity [2]: Non-Toxic
Activity [3]: Non-Toxic
Activity [4]: Non-Toxic
Activity (NCI-H1975 [5]): 16%
selectivity ratio [16]: > 10
selectivity ratio [17]: > 10
